The values that follow come from paper PMC12088000, “Design, synthesis and in silico molecular modelling studies of 2-Hydrazineyl-2-oxoethyl-4-(1H-pyrrol-1-yb) benzoate derivatives: a potent dual DHFR and ENR-reductase inhibitors with antitubercular, antibacterial and cytotoxic potential” (PLOS One, 2025).

For orientation: MIC means the least concentration at which growth counts as inhibited. The inhibition is the change of the read-out against control, counted positive when it falls. What is called IC50 is the concentration that gives 50% inhibition. Higher therefore signals weaker potency.

Converted amounts (≈) assume the structure as drawn.

Assay [1] has as its system M. tuberculosis H37Rv. Briefly: Antitubercular activity, Microplate Alamar Blue test (MABA). The following applies: n = 3; for MIC: Mycobacterium tuberculosis, H37RV. In kind it is cell-based, Mycobacterium tuberculosis.
Assay [2] has as its target InhA enzyme from M. tuberculosis (Mycobacterium tuberculosis, UniProt P9WGR1). As to the kind of experiment: InhA inhibition assay. The note with it: read-out: % InhA Inhibition at 50 µM. In kind it is biochemical.
Assay [3] deals with MtDHFR (Mycobacterium tuberculosis, UniProt P9WNX1). Briefly: biochemical. In kind it is biochemical.
Sequence of MtDHFR (P9WNX1 whole entry): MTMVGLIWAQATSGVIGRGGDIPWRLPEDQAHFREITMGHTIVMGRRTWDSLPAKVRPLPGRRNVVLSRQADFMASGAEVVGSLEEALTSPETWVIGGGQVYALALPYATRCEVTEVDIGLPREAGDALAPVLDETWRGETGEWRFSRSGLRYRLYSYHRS
Assay [4] relates to human lung cancer cell line A549. As to the kind of experiment: MTT-based cytotoxicity. It is filed as cell-based. The note with it: Homo sapiens, A549; MTT assay. As to the method:
The cytotoxic effects of seventeen selected molecules were assessed against the A549 human lung adenocarcinoma cell line using the MTT assay. Cisplatin served as the reference drug for comparison. Lower IC50 values indicate higher cytotoxicity.
The cytotoxic activity (IC50) of selected compounds against A549 (lung adenocarcinoma) MV cell-lines was evaluated by performing cellular conversion of MTT [3-(4,5-dimethylthiazo-2-yl)-2,5-diphenyl-tetrazolium bromide] into a formazan product. This evaluation was conducted up to a concentration of 50 mg/mL using the Promega Cell Titre 96 non-radioactive cell proliferation assay, with cisplatin serving as the positive control. Cytotoxicity is commonly quantified by determining the IC50 value, which represents the quantity of a substance that reduces the optical density of treated cells by 50% compared to untreated cells, as measured by the MTT experiment. The results are presented as IC50 values (mean ± standard error of the mean (SEM) obtained from three separate and independent measurements.
For orientation: Tetrazolium assays rely on reduction of a dye to a coloured formazan, in cell work by metabolically active cells.

Assay [5] has as its system E. coli ATCC 25922. As to the kind of experiment: Antibacterial activity, broth microdilution (E. coli). The following applies: for MIC: Escherichia coli, ATCC25922, read-out: E. coli ATCC 25922 (Gram –ve) MIC, broth microdilution. Background: In broth dilution the organism is exposed to a series of concentrations in liquid medium.
Method: (§1) All twenty-eight molecules were evaluated for in vitro antimicrobial activities that were assessed against Gram +ve and Gram -ve strains.
(§2) The antibacterial inhibitory effects of all compounds were assessed using the broth microdilution method, with ciprofloxacin serving as the reference medication.
Assay [6] concerns S. aureus ATCC 29213. Briefly: Antibacterial activity, broth microdilution (S. aureus). The following applies: Staphylococcus aureus, ATCC29213, read-out: S. aureus ATCC 29213 (Gram +ve) MIC.
Method: as §1, §2

Sequence of InhA enzyme from M. tuberculosis (P9WGR1 whole entry, looked up): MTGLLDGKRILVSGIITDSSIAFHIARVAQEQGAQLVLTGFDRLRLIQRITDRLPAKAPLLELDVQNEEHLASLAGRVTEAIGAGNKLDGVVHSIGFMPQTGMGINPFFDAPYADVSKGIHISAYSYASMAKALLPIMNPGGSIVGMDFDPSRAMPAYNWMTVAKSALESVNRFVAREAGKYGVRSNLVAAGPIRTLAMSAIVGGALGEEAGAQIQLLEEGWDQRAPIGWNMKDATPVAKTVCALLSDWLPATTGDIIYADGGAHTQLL

As for `O=C(OCC(=O)n1[nH]c(=O)c2ccccc2c1=O)c1ccc(-n2cccc2)cc1` [Compound 4a, 2-(1,4-dioxo-3,4-dihydrophthalazin-2(1H)-yl)-2-oxoethyl 4-(1H-pyrrol-1-yl)benzoate], the results for the MIC in assay [1], in assay [5] and in assay [6] were 1.6 µg/mL (≈ 4.11 µM), 3.12 µg/mL (≈ 8.01 µM) and 12.5 µg/mL (≈ 32.1 µM), respectively. For the same compound, in assay [2], the inhibition at 50 µM turned out to be 43%. For the same compound, the IC50 in assay [3] is 23 µM; in assay [4] it was 315 ± 0.3 µg/mL (≈ 809 µM). In assay [3], the “MtDHFR inhibition, in words, compared with trimethoprim” value is “greater inhibition characteristics than trimethoprim”.

In the case of `CC(=NNC(=O)COC(=O)c1ccc(-n2cccc2)cc1)c1ccc(F)cc1` [Compound 5l, 2-(2-(1-(4-fluorophenyl)ethylidene)hydrazinyl)-2-oxoethyl 4-(1H-pyrrol-1-yl)benzoate], the results for the MIC in assay [1], in assay [5] and in assay [6] were 1.6 µg/mL (≈ 4.22 µM), 3.12 µg/mL (≈ 8.22 µM) and 12.5 µg/mL (≈ 32.9 µM), respectively. Also, the inhibition at 50 µM in assay [2] was determined as 46%. Moreover, the IC50 was 65 µM in assay [3] and 241 ± 0.6 µg/mL (≈ 635 µM) in assay [4]. Also, in assay [3], the “MtDHFR inhibition, in words, compared with trimethoprim” value is “moderate inhibition”.

As to `CC(=NNC(=O)COC(=O)c1ccc(-n2cccc2)cc1)c1cccc(Br)c1` [Compound 5f, 2-(2-(1-(3-bromophenyl)ethylidene)hydrazinyl)-2-oxoethyl 4-(1H-pyrrol-1-yl)benzoate], the MIC is 1.6 µg/mL (≈ 3.63 µM) in assay [1], 1.6 µg/mL (≈ 3.63 µM) in assay [5] and 3.12 µg/mL (≈ 7.09 µM) in assay [6]. In addition, the inhibition at 50 µM in assay [2] was 43%. The IC50 in assay [3] worked out at 153 µM; in assay [4], 275 ± 0.4 µg/mL (≈ 625 µM).

Turning to `O=C(COC(=O)c1ccc(-n2cccc2)cc1)NN=Cc1ccc([N+](=O)[O-])cc1` [Compound 6c, 2-(2-(4-nitrobenzylidene)hydrazinyl)-2-oxoethyl 4-(1H-pyrrol-1-yl)benzoate], the MIC was 1.6 µg/mL (≈ 4.08 µM) in assay [1], 1.6 µg/mL (≈ 4.08 µM) in assay [5] and 6.25 µg/mL (≈ 15.9 µM) in assay [6]. For the same compound, the inhibition at 50 µM in assay [2] turned out to be 9%. Besides, the figures for the IC50 in assay [3] and in assay [4] were 133 µM and 296 ± 0.3 µg/mL (≈ 754 µM), respectively.

As for `O=C(COC(=O)c1ccc(-n2cccc2)cc1)NN=Cc1ccccc1` [Compound 6a, 2-(2-benzylidenehydrazinyl)-2-oxoethyl 4-(1H-pyrrol-1-yl)benzoate], the MIC in assay [1] stood at 1.6 µg/mL (≈ 4.61 µM); in assay [5] it was 1.6 µg/mL (≈ 4.61 µM); in assay [6] it was 12.5 µg/mL (≈ 36 µM). Besides, the inhibition at 50 µM in assay [2] is 13%. The IC50 in assay [3] came out at 132 µM; in assay [4], 244 ± 0.8 µg/mL (≈ 702 µM).

For the compound `O=C(OCC(=O)n1[nH]c(=O)c2c(Cl)c(Cl)c(Cl)c(Cl)c2c1=O)c1ccc(-n2cccc2)cc1` [Compound 4b, 2-oxo-2-(5,6,7,8-tetrachloro-1,4-dioxo-3,4-dihydrophthalazin-2(1H)-yl)ethyl 4-(1H-pyrrol-1-yl)benzoate], the MIC in assay [1] worked out at 1.6 µg/mL (≈ 3.04 µM); in assay [5] it was 0.8 µg/mL (≈ 1.52 µM); in assay [6] it was 6.25 µg/mL (≈ 11.9 µM). The inhibition at 50 µM in assay [2] came to 29%. Besides, the IC50 in assay [3] came to 25 µM; in assay [4], 319 ± 0.4 µg/mL (≈ 605 µM). The “MtDHFR inhibition, in words, compared with trimethoprim” value in assay [3] is given as “greater inhibition characteristics than trimethoprim”.

Turning to `CC(=NNC(=O)COC(=O)c1ccc(-n2cccc2)cc1)c1ccccc1` [Compound 5a, 2-oxo-2-(2-(1-phenylethylidene)hydrazinyl)ethyl 4-(1H-pyrrol-1-yl)benzoate], the minimum inhibitory concentration (MIC) worked out at 1.6 µg/mL (≈ 4.43 µM) in assay [1], 1.6 µg/mL (≈ 4.43 µM) in assay [5] and 12.5 µg/mL (≈ 34.6 µM) in assay [6]. Further, in assay [2], the inhibition at 50 µM is 26%. In addition, the results for the IC50 in assay [3] and in assay [4] were 95 µM and 225 ± 0.3 µg/mL (≈ 623 µM), respectively.

On to `O=C(COC(=O)c1ccc(-n2cccc2)cc1)NN=Cc1ccc(Cl)cc1` [Compound 6d, 2-(2-(4-chlorobenzylidene)hydrazinyl)-2-oxoethyl 4-(1H-pyrrol-1-yl)benzoate], for which the figures for the minimal inhibitory concentration (MIC) in assay [1], in assay [5] and in assay [6] were 0.8 µg/mL (≈ 2.1 µM), 1.6 µg/mL (≈ 4.19 µM) and 3.12 µg/mL (≈ 8.17 µM), respectively. The “M. tuberculosis H37Rv MIC values” in assay [1] was determined as 0.8 µg/mL. The inhibition at 50 µM in assay [2] amounted to 18%. Besides, the IC50 in assay [3] was found to be 62 µM; in assay [4], 262 ± 0.7 µg/mL (≈ 686 µM). The “MtDHFR inhibition, in words, compared with trimethoprim” value in assay [3] is reported as “moderate inhibition”.

As to `C/C(=N\NC(=O)COC(=O)c1ccc(-n2cccc2)cc1)c1ccc(Br)cc1` [Compound 5b, 2-(2-(1-(4-bromophenyl)ethylidene) hydrazineyl)-2-oxoethyl-4-(1H-pyrrol-1-yl) benzoate], the results for the minimum inhibitory concentration (MIC) in assay [1], in assay [5] and in assay [6] were 0.8 µg/mL (≈ 1.82 µM), 0.4 to 0.8 µg/mL (≈ 0.908 to 1.82 µM) and 1.6 µg/mL (≈ 3.63 µM), respectively. Also, the “M. tuberculosis H37Rv MIC values” in assay [1] was found to be 0.8 µg/mL. For the same compound, the inhibition at 50 µM in assay [2] was 22%. The IC50 in assay [3] was 23 µM; in assay [4], 266 ± 0.3 µg/mL (≈ 604 µM). In addition, the “MtDHFR inhibition, in words, compared with trimethoprim” value in assay [3] is listed as “greater inhibition characteristics than trimethoprim”. The “E. coli ATCC 25922 (Gram –ve) MIC” value in assay [5] (broth microdilution) was determined as 0.4 µg/mL.

On to `O=C(OCC(=O)n1[nH]c(=O)c2c(Br)c(Br)c(Br)c(Br)c2c1=O)c1ccc(-n2cccc2)cc1` [Compound 4c, 2-oxo-2-(5,6,7,8-tetrabromo-1,4-dioxo-3,4-dihydrophthalazin-2(1H)-yl)ethyl 4-(1H-pyrrol-1-yl)benzoate], for which the minimum inhibitory concentration (MIC) in assay [1] was 1.6 µg/mL (≈ 2.27 µM); in assay [5], 0.8 µg/mL (≈ 1.13 µM); in assay [6], 6.25 µg/mL (≈ 8.87 µM). The inhibition at 50 µM in assay [2] came out at 51%. In addition, the IC50 is 21 µM in assay [3] and 287 ± 0.7 µg/mL (≈ 407 µM) in assay [4]. In addition, the “MtDHFR inhibition, in words, compared with trimethoprim” value in assay [3] is listed as “greater inhibition characteristics than trimethoprim”.

For the compound `CC(=NNC(=O)COC(=O)c1ccc(-n2cccc2)cc1)c1ccc(O)cc1` [Compound 5j, 2-(2-(1-(4-hydroxyphenyl)ethylidene)hydrazinyl)-2-oxoethyl 4-(1H-pyrrol-1-yl)benzoate], the results for the MIC in assay [1], in assay [5] and in assay [6] were 1.6 µg/mL (≈ 4.24 µM), 3.12 µg/mL (≈ 8.27 µM) and 12.5 µg/mL (≈ 33.1 µM), respectively. The inhibition at 50 µM in assay [2] is 32%. In addition, the half-maximal inhibitory concentration (IC50) came to 70 µM in assay [3] and 255 ± 0.3 µg/mL (≈ 676 µM) in assay [4]. The “MtDHFR inhibition, in words, compared with trimethoprim” value in assay [3] is listed as “moderate inhibition”.

Take `Cc1cc(=O)n(C(=O)COC(=O)c2ccc(-n3cccc3)cc2)[nH]c1=O` [Compound 4f, 2-(4-methyl-3,6-dioxo-2,3-dihydropyridazin-1(6H)-yl)-2-oxoethyl 4-(1H-pyrrol-1-yl)benzoate]: the MIC in assay [1] was 1.6 µg/mL (≈ 4.53 µM); in assay [5] it was 0.8 µg/mL (≈ 2.26 µM); in assay [6] it was 3.12 µg/mL (≈ 8.83 µM). Moreover, the inhibition at 50 µM in assay [2] was 23%. The IC50 in assay [3] worked out at 35 µM; in assay [4], 258 ± 0.1 µg/mL (≈ 730 µM). Besides, the “MtDHFR inhibition, in words, compared with trimethoprim” value in assay [3] is “greater inhibition characteristics than trimethoprim”.

For `CC(=NNC(=O)COC(=O)c1ccc(-n2cccc2)cc1)c1cccc(Cl)c1` [Compound 5k, 2-(2-(1-(3-chlorophenyl)ethylidene)hydrazinyl)-2-oxoethyl 4-(1H-pyrrol-1-yl)benzoate], the MIC in assay [1] was 1.6 µg/mL (≈ 4.04 µM); in assay [5], 3.12 µg/mL (≈ 7.88 µM); in assay [6], 12.5 µg/mL (≈ 31.6 µM). In addition, in assay [2], the inhibition at 50 µM stood at 32%. Further, the IC50 in assay [3] was 69 µM; in assay [4] it was 229 ± 0.4 µg/mL (≈ 579 µM). In addition, the “MtDHFR inhibition, in words, compared with trimethoprim” value in assay [3] was “moderate inhibition”.
